Data published in US12594255B2, “Lipids with odd number of carbon atoms and their use as pharmaceutical composition or nutritional supplement” (SunRegen Healthcare AG, priority 2016, dated 2026).
Several values for one entry are separate records, joined by “and”; a condition that tells them apart may be missing. Equal values may be shown once.

Assays:
Type in all cases: cell-based
[1] = system: mouse primary cortical neurons treated with 0.25 mM H2O2; assay: H2O2-induced neurotoxicity, test item added 48 hours before or 3 hours after H2O2, MTT assay
[2] = system: mouse primary cortical neurons challenged with Aβ1-42 oligomers (AβO); assay: AβO-induced neurotoxicity, 48-h pre-incubation with test item, MTT assay; conditions: for Neuroprotection (0.01 μM) / Neuroprotection (0.1 μM): added 48 hours before 1 μM AβO; for neuroprotective effect: 1 μM, 48-h preincubation before 1 μM AβO
Procedure: Mouse primary cortical neurons were pre-incubated for 48 h with vehicle, 0.05 μM DHA (used as positive control) or different concentrations of Compound C. Then, cortical neurons were treated for 24 h with vehicle (FIG. 1 left) or 1 μM AβO ([…]) and cell viability was determined using the MTT assay (n=3 determinations per condition, 1 independent experiment), Data are represented as % of vehicle control (Mean*SD). […]
(§1) Cortical neurons from embryonic day 16-17 are prepared from C57BL6/J mouse fetuses. In brief, dissociated cortical cells were plated (50.000 cells/well) in 48-well plates pre-coated with 1.5 μg/mL polyornithine (Sigma). Cells were cultured in a chemically defined Dulbecco's modified eagle's/F12 medium free of serum and supplemented with hormones, proteins and salts. Cultures were kept at 35° C. in a humidified 6% CO2 atmosphere. Mouse cortical neurons were exposed for 24 h to 1.0 μM AβO after a 48-h pre-incubation with vehicle or different concentrations of Compound C. The AβO-induced neurotoxicity was evaluated using the MTT assay.
All treatments were done in triplicates in 48-well plates. Cells were incubated with vehicle or 1 μM AβO in the absence or presence of different lipids at the indicated final concentrations) added at 48 hours before ADO. Cells were incubated with AβO for 24 h in a final volume of 140 μL per well.
For positive controls, cells are treated similarly (48 hours before AβO) in the presence of 0.05 μM DHA.
Following AβO-treatment, cell viability was measured using the MTT assay. Briefly, cells were incubated at 35° C. for 1 h with MTT (Sigma, Cat #M2128-10G. Lot #MKBH7489V). For that purpose, 14 μL of 5 mg/mL MITT (solubilized in PBS) were added in each well. After incubation, medium was removed and cells were lyzed with 150 μL DMSO for 10 minutes and protected from light. After complete solubilization of formazan, absorbance at 570 nm was recorded.
as §1, with “cells are” for “cells were”, “Cells are” for “Cells were”, “Cultures are” for “Cultures were”, “of herb B extracts.” for “of Compound C.”, “assay. […]” for “assay.”

[3] = system: mouse primary cortical neurons challenged with Aβ1-42 oligomers (AβO); assay: AβO-induced neurotoxicity, test item added concomitantly (T0) or 3 h (T3) or 6 h (T6) after AβO, MTT assay; conditions: 0.1 μM HNG added 3 or 6 h after AβO
Procedure: Mouse primary cortical neurons were treated at 0 h (T0) with vehicle or 1 μM AβO, Different concentrations of Compound C or HNG (0.1 μM, used as positive control) were added concomitantly to AβO at 0 h (T0)), 3 h (T3) or 6 h (T6) after AβO. Then, cortical neurons were incubated for 24 h and cell viability was determined using the MTT assay (n=3 determinations per condition, 1 independent experiment). Data are represented as % of vehicle control (Mean±SD). […]
The aim of this study is to determine whether Compound C might present neuroprotective, anti-apoptotic and neuro-rescuing effects in in vitro AβO induced neuron death models. For that purpose, the neuro-protective effects of compound C at six concentrations were investigated using mouse primary cortical neurons challenged with Aβ1-42 oligomers (AβO) Compounds were added at different time points (concomitantly T0 with AβO and T3, or T6 after AβO) with the aim to identify rescuing effects or anti-apoptotic effects.
Cortical neurons from embryonic day 16-17 are prepared from C57Bl6/J mouse fetuses, as described in Example I-1.
Mouse cortical neurons were exposed for 24 h to 1.0 μM AβO. The AβO-induced neurotoxicity was evaluated using the MTT assay. […] (FIG. 4)
The percentage of neuroprotection and anti-apoptosis effects was defined as; (neuron viability of compound C group−neuron viability of toxin treated group)/(100−neuron viability of toxin treated group)×100%. The % of neuroprotection and anti-apoptotic effects of compound C at 1000 nM is 88.7%, 52.0%, 22.3%, at T0, T3, or T6, respectively. (FIG. 4) […]

[4] = system: human iPSC-derived neurons challenged with Aβ1-42 oligomers (AβO); assay: AβO-induced neuronal death in human iPSC-derived neurons, NSE ELISA assay
Procedure: iPSCs were treated at 0 h (T0) with vehicle or 1 μM AβO. Different concentrations of Compound C or 0.1 μM HNG (used as positive control) were added concomitantly to AβO at 0 h (T0), 3 h (T3) or 6 h (T6) after AβO. Then, were incubated for 24 h and cell viability was determined using the NSE ELISA assay (n=6 determinations per condition, 1 independent experiment), Data are represented as % of vehicle control (Mean±SD). […]
To determine whether compound C might rescue neuronal death in human iPSC-derived neurons challenged with Aβ1-42 oligomers (AβO). In this cellular model, AβO induce a dramatic neuronal death that could be monitored by the level of neuronal specific enolase (NSE) using a specific ELISA assay. Compound C will be added at different time points (concomitantly and after AMBO) with the aim to identify rescuing effects.
Cells (HIP-Neuronal progenitors, GlobalStem, Cat #GSC-4312, Lot #20010260) are plated in 96-well plates at a density of 60.000 cells per well and culture. Before experiments, cells are matured for five weeks and kept at 37° C. in a humidified 5% CO2 atmosphere.
Cells are incubated with vehicle or 1 μM AβO in the absence or presence of different concentrations (i.e. 10, 100, 1000 and 10000 nM) of Compound C added concomitantly to AβO (T0), 3 h after AβO (T3), or 6 h after AβO (T6). Cells are incubated for 24 h in a final volume of 100 μL per well. For positive control, cells are treated similarly in the presence of 0.1 μM HNG (i.e. S14G variant of humanin peptide). In addition, neuronal loss is monitored using the detection of neuronal specific enolase (NSE) by ELISA assay according to supplier's recommendations (CloneCloud, Cat #SEA537Hu). A total of three data points per experimental condition will be generated here. […]

[5] = system: mouse primary cortical neurons; assay: Axonal growth (MAP2 immunolabelling, axonal length); conditions: 60 nM sAPPα; vehicle control 165.96±90.18 μm
Procedure: Mouse primary cortical neurons were pre-incubated for 48 h with vehicle, 60 nM sAPPα (used as positive control) or different concentrations of Compound C. Then, cortical neurons were treated for 24 h with vehicle. Data are represented as % of vehicle control (Mean±SD).
Cortical neurons from embryonic day 16-17 are prepared from C57Bl6/J mouse fetuses, as described in Example I-1. After 96-h incubation, axonal length is recorded. Briefly, cells were washed with ice-cold PBS and fixed with cold methanol. Following fixation, cells are immunolabelled using a specific antibody detecting total MAP2 protein. Antibodies to MAP2 are excellent markers on neuronal cells, their axons and neuronal dendrites. For quantification of axonal length, six independent images of labelled cells are captured using an inverted microscope. Pictures of cells are analyzed using Neuron-J software and axonal length is recorded manually. A minimum of 100 independent neurons are treated. The data are expressed as mean axonal length (expressed in μm) (Mean±SD). Statistical differences between vehicle-treated cells and cells treated with compounds are determined using a t-test.

| Compound | Neuroprotection (0.01 μM) [2] [%] | Neuroprotection (0.1 μM) [2] [%] | neuroprotective effect [2] | also measured |
| --- | --- | --- | --- | --- |
| Cc1c(C)c2c(c(C)c1O)CCC(C)(C(=O)O)O2 (stereo not shown) [Trolox] |  |  |  | inhibition of H2O2-induced cell death ([1]; 1 mM Trolox added 48 h before 0.25 mM H2O2): partially inhibited cell death induced by H2O2; inhibition of H2O2-induced cell death ([1]; 1 mM Trolox added at T3 after 0.25 mM H2O2): partially inhibited cell death induced by H2O2 |
| CCCCCCCCCCCCCCC(=O)O [GG05, Pentadecanoic acid] | 21.9 | 14.0 | lost neuroprotective effect |  |
| CCCCCCCCCCCCCCCCC(=O)O [GG07, Heptadecanoic acid] | 27.4 | 21.4 | lost neuroprotective effect |  |
| HNG: S14G variant of humanin peptide, positive control, well-known antiapoptotic peptide (MAPRGFSCLLLLTGEIDLPVKRRA; UniProt Q8IVG9 1-24, looked up, variant S14G) [reference compound] |  |  |  | prevention of AβO-induced cell death [3]: did not prevent cell death; prevention of AβO-induced cell death ([4]; 0.1 μM HNG added 3 or 6 h after AβO): did not prevent cell death; neuron viability ([4]; 0.1 μM HNG added at T0 with 1 μM AβO, 24 h): 85.3±15.6 % of control and 85.3±5.6 % of control |
| CC/C=C\C/C=C\C/C=C\C/C=C\C/C=C\C/C=C\CCC(=O)O [DHA, Docosahexaenoic acid, reference compound] |  |  |  | remaining cell viability ([2]; 0.05 μM DHA, 48 h pre-incubation, then 1 μM AβO 24 h): 82.0±2.6 % of control and 90.9±3.1 % of control |
| sAPPα: Secreted amyloid precursor protein-α, positive control [reference compound] |  |  |  | neuronal axon outgrowth (mean axonal length) [5]: 264.63±157.51 μm |
| CCCCCCCCCCCCCCCCCCC(=O)O [GG09, Nonadecanoic acid] | 31.2 | 25.9 | lost neuroprotective effect |  |
